Laboratory results reported in publication PMC2759274 (Molecular microbiology, 2009).

How the values were obtained:
PsrA (His6-PsrA) = PsrA (His6-PsrA) (Pseudomonas aeruginosa, UniProt Q9HZJ9); test: EMSA, inhibition of PsrA binding to promoter DNA; conditions: 100 ng PpsrA, PrpoS or PexsC DNA; 0.01% Brij-58; inhibition seen from 5 µM
crystal structure = biological target: the molecule itself; test: crystal structure

Question: `CCCCCCCC/C=C\CCCCCCCC(=O)O` [oleate] was tested. Which “complete inhibition of DNA binding” value (PsrA (His6-PsrA)) did it give?
Answer: Its value is 50 µM.

B1: PsrA (PA3006) of Pseudomonas aeruginosa (natural protein)
chain: MAQSETVERILDAAEQLFAEKGFAETSLRLITSKAGVNLAAVNYHFGSKKALIQAVFSRFLGPFCASLEKELDRRQAKPEAQHATLEDLLHLLVSQAMAVKPRSGNDLSIFMRLLGLAFSQSQGHLRKYLEEVYGKVFRRYMLLVNEAAPKLPPIELFWRVHFMLGAAAFSMSGIKALRAMAETDFGVNTSTEQVMHLMVPFFAAGMRAESGIDDPLLAGAQLRPRNKTPAKA
modifications: selenomethionine in place of methionine
Question: Does B1 bind (crystal structure)?
Answer: Result: binds
